“And” between values parts separate entries of the source, which are not always exact repeats. Identical values can stand only once.
Test: xn = mol fraction of the nth substance listed

CCCC(=O)O + Cc1ccccc1N
viscosity [mPa·s], 100 kPa
Conditions | x2 = 0.0971 | x2 = 0.1896 | x2 = 0.2605 | x2 = 0.3617 | x2 = 0.4825 | x2 = 0.5911 | x2 = 0.6776 | x2 = 0.7516 | x2 = 0.8641
303.15 K | 1.59 | 1.78 | 1.92 | 2.12 | 2.35 | 2.55 | 2.71 | 2.84 | 3.03
308.15 K | 1.42 | 1.58 | 1.7 | 1.87 | 2.07 | 2.24 | 2.37 | 2.48 | 2.64
313.15 K | 1.26 | 1.4 | 1.51 | 1.66 | 1.83 | 1.98 | 2.1 | 2.19 | 2.33
318.15 K | 1.1 | 1.23 | 1.32 | 1.45 | 1.6 | 1.73 | 1.83 | 1.91 | 2.02

CCCC(=O)O + ClC(Cl)(Cl)Cl
298.15 K, 101 kPa
Conditions | viscosity [mPa·s]
x1 = 0.08 | 0.911
x1 = 0.16 | 0.925
x1 = 0.24 | 0.945
x1 = 0.3 | 0.966
x1 = 0.54 | 1.079
x1 = 0.64 | 1.142
x1 = 0.72 | 1.201
x1 = 0.87 | 1.331

CCCCBr + ClC(Cl)(Cl)Cl
101 kPa
Conditions | viscosity [mPa·s]
295.95 K, x1 = 0.0935 | 0.874
295.95 K, x1 = 0.1213 | 0.8589
295.95 K, x1 = 0.171 | 0.8365
295.95 K, x1 = 0.2166 | 0.8163
295.95 K, x1 = 0.3376 | 0.7686
295.95 K, x1 = 0.5094 | 0.7155
295.95 K, x1 = 0.6766 | 0.6738
303.45 K, x1 = 0.0948 | 0.7853
303.45 K, x1 = 0.1316 | 0.7681
303.45 K, x1 = 0.1914 | 0.7427
303.45 K, x1 = 0.3229 | 0.698
303.45 K, x1 = 0.4875 | 0.6544
303.45 K, x1 = 0.7961 | 0.5884
313.25 K, x1 = 0.127 | 0.6844
313.25 K, x1 = 0.2061 | 0.6557
313.25 K, x1 = 0.2967 | 0.6297
313.25 K, x1 = 0.4576 | 0.5922
313.25 K, x1 = 0.6279 | 0.5598
313.25 K, x1 = 0.761 | 0.5382
313.25 K, x1 = 0.7961 | 0.5329

CCCCCCCBr + ClC(Cl)(Cl)Cl
viscosity [mPa·s], 101 kPa
Conditions | 293.15 K | 303.15 K | 313.15 K | 323.15 K
x1 = 0.123 | 1.015 | 0.878 | 0.769 | 0.677
x1 = 0.259 | 1.045 | 0.905 | 0.797 | 0.705
x1 = 0.412 | 1.09 | 0.945 | 0.832 | 0.738
x1 = 0.584 | 1.13 | 0.982 | 0.865 | 0.767

CCCCNCCCC + ClC(Cl)(Cl)Cl
298.15 K, 101.3 kPa
Conditions | viscosity [mPa·s]
x1 = 0.0922 | 0.898
x1 = 0.173 | 0.894
x1 = 0.3108 | 0.887
x1 = 0.4089 | 0.881
x1 = 0.5011 | 0.877
x1 = 0.5964 | 0.872
x1 = 0.7077 | 0.864
x1 = 0.7916 | 0.848
x1 = 0.9034 | 0.823

CCOC(=O)C(=O)OCC + ClC(Cl)(Cl)Cl
303.15 K, 101 kPa
Conditions | viscosity [mPa·s]
x1 = 0.0736 | 0.915
x1 = 0.1516 | 0.997
x1 = 0.2345 | 1.074
x1 = 0.3227 | 1.155
x1 = 0.4171 | 1.24
x1 = 0.5177 | 1.323
x1 = 0.6259 | 1.402
x1 = 0.7414 | 1.482
x1 = 0.8658 | 1.574

CCCCNCCCC + ClC(Cl)Cl
298.15 K, 101.3 kPa
Conditions | viscosity [mPa·s]
x1 = 0.102 | 0.639
x1 = 0.199 | 0.717
x1 = 0.3088 | 0.803
x1 = 0.3714 | 0.845
x1 = 0.4997 | 0.904
x1 = 0.6082 | 0.925
x1 = 0.698 | 0.907
x1 = 0.7719 | 0.89
x1 = 0.9007 | 0.852

CCOC(=O)C(=O)OCC + ClC(Cl)Cl
303.15 K, 101 kPa
Conditions | viscosity [mPa·s]
x1 = 0.0624 | 0.606
x1 = 0.1302 | 0.712
x1 = 0.2043 | 0.825
x1 = 0.2854 | 0.942
x1 = 0.3747 | 1.051
x1 = 0.473 | 1.157
x1 = 0.5831 | 1.28
x1 = 0.7057 | 1.399
x1 = 0.8436 | 1.539

CCCCNCCCC + ClCCl
298.15 K, 101.3 kPa
Conditions | viscosity [mPa·s]
x1 = 0.0995 | 0.494
x1 = 0.2125 | 0.55
x1 = 0.299 | 0.59
x1 = 0.3913 | 0.633
x1 = 0.4338 | 0.655
x1 = 0.6097 | 0.719
x1 = 0.6782 | 0.74
x1 = 0.807 | 0.768
x1 = 0.8865 | 0.787

C[N+](C)(C)C[C@H](O)CC(=O)[O-] + NC(N)=O
Conditions | viscosity [mPa·s]
298.15 K, 101.33 kPa, x2 = 0.7 | 553

CCCC(=O)O + NC=O
viscosity [mPa·s], 101 kPa
Conditions | x1 = 0.1043 | x1 = 0.2044 | x1 = 0.3013 | x1 = 0.4031 | x1 = 0.5027 | x1 = 0.5996 | x1 = 0.7011 | x1 = 0.799 | x1 = 0.857 | x1 = 0.951
298.15 K | 2.333 | 3.534 | 5.24 | 7.11 | 8.41 | 9.33 | 9.17 | 8.51 | 7.33 | 4.986
313.15 K | 1.734 | 2.563 | 3.461 | 4.456 | 5.37 | 5.8 | 5.8 | 5.54 | 4.779 | 3.252

CCN(C=O)CC + NC=O
viscosity [mPa·s]
Conditions | 298.15 K | 308.15 K | 323.15 K
101 kPa, x1 = 0.1 | 3.55 | 2.91 | 2.27
101 kPa, x1 = 0.2 | 3.62 | 2.97 | 2.29
101 kPa, x1 = 0.3 | 3.51 | 2.86 | 2.15
101 kPa, x1 = 0.4 | 3.25 | 2.62 | 1.91
101 kPa, x1 = 0.5 | 2.93 | 2.34 | 1.64
101 kPa, x1 = 0.6 | 2.52 | 2.01 | 1.43
101 kPa, x1 = 0.7 | 2.24 | 1.71 | 1.22
101 kPa, x1 = 0.85 | 1.61 | 1.34 | 1.01
101.33 kPa, x2 = 0.07537 | 1.391 | – | 0.937
101.33 kPa, x2 = 0.1513 | 1.585 | – | 1.034
101.33 kPa, x2 = 0.2164 | 1.736 | – | 1.103
101.33 kPa, x2 = 0.2957 | 2.021 | – | 1.26
101.33 kPa, x2 = 0.3723 | 2.312 | – | 1.37
101.33 kPa, x2 = 0.4452 | 2.614 | – | 1.503
101.33 kPa, x2 = 0.4964 | 2.776 | – | 1.603
101.33 kPa, x2 = 0.5665 | 3.138 | – | 1.757
101.33 kPa, x2 = 0.6362 | 3.333 | – | 1.859
101.33 kPa, x2 = 0.7013 | 3.547 | – | 1.942
101.33 kPa, x2 = 0.7404 | 3.678 | – | 1.99
101.33 kPa, x2 = 0.785 | 3.722 | – | 2.046
101.33 kPa, x2 = 0.8471 | 3.663 | – | 2.045
101.33 kPa, x2 = 0.93 | 3.516 | – | 1.978

COCCO + NCCO
viscosity [mPa·s], 101.3 kPa
Conditions | x2 = 0.122 | x2 = 0.348 | x2 = 0.916
298.15 K | 2.065 | 3.765 | –
308.15 K | – | – | 10.55

C1CNCCN1 + O
Conditions | viscosity
293.15 K, 100 kPa, x1 = 0.02273 | 1.608 mPa·s
298.15 K, 101 kPa, x1 = 0.0292 | 1.877 mPa·s
303.15 K, 101 kPa, x1 = 0.00369 | 0.86 mPa·s
303.15 K, 101 kPa, x1 = 0.005 | 0.84 mPa·s
303.15 K, 101 kPa, x1 = 0.01 | 0.93 mPa·s
303.15 K, 101 kPa, x1 = 0.0113 | 0.97 mPa·s
303.15 K, 101 kPa, x1 = 0.02 | 1.13 mPa·s
303.15 K, 101 kPa, x1 = 0.02358 | 1.28 mPa·s
303.15 K, 101 kPa, x1 = 0.025 | 1.28 mPa·s
303.15 K, 101 kPa, x1 = 0.03 | 1.41 mPa·s
303.15 K, 101 kPa, x1 = 0.035 | 1.57 mPa·s
303.15 K, 101 kPa, x1 = 0.04 | 1.76 mPa·s
303.15 K, 101 kPa, x1 = 0.045 | 1.91 mPa·s
313.15 K, 100 kPa, x1 = 0.02273 | 0.9677 mPa·s and 0.988 mPa·s
313.15 K, 101 kPa, x1 = 0.005 | 0.67 mPa·s
313.15 K, 101 kPa, x1 = 0.01 | 0.74 mPa·s
313.15 K, 101 kPa, x1 = 0.0113 | 0.76 mPa·s
313.15 K, 101 kPa, x1 = 0.015 | 0.81 mPa·s
313.15 K, 101 kPa, x1 = 0.02 | 0.89 mPa·s
313.15 K, 101 kPa, x1 = 0.02358 | 1.02 mPa·s
313.15 K, 101 kPa, x1 = 0.025 | 0.99 mPa·s
313.15 K, 101 kPa, x1 = 0.0292 | 1.307 mPa·s
313.15 K, 101 kPa, x1 = 0.03 | 1.08 mPa·s
313.15 K, 101 kPa, x1 = 0.04 | 1.33 mPa·s
313.15 K, 101 kPa, x1 = 0.045 | 1.43 mPa·s
318.15 K, 101 kPa, x1 = 0.00369 | 0.61 mPa·s
318.15 K, 101 kPa, x1 = 0.0113 | 0.69 mPa·s
318.15 K, 101 kPa, x1 = 0.02358 | 0.92 mPa·s
323.15 K, 101 kPa, x1 = 0.005 | 0.51 mPa·s
323.15 K, 101 kPa, x1 = 0.01 | 0.59 mPa·s
323.15 K, 101 kPa, x1 = 0.0113 | 0.62 mPa·s
323.15 K, 101 kPa, x1 = 0.02 | 0.71 mPa·s
323.15 K, 101 kPa, x1 = 0.02358 | 0.81 mPa·s
323.15 K, 101 kPa, x1 = 0.025 | 0.8 mPa·s
323.15 K, 101 kPa, x1 = 0.03 | 0.86 mPa·s
323.15 K, 101 kPa, x1 = 0.035 | 0.95 mPa·s
323.15 K, 101 kPa, x1 = 0.04 | 1.04 mPa·s
323.15 K, 101 kPa, x1 = 0.045 | 1.11 mPa·s

— the CheMixHub viscosity set
